In patent publication US8324235B2, “Heterocyclic spiro-compounds” (Novartis AG, priority 2007, dated 2012):
Like-named read-outs stand apart in the source and are kept apart here.

Experiments:
[1] = target: T1, recombinant human Cyp19 enzyme (aromatase) (Homo sapiens, UniProt P11511); experiment: Cyp19/MFC high throughput aromatase inhibition kit; format: biochemical
T1 construct: purchased Becton Dickinson Biosciences, San Jose, Calif., USA
T1 sequence (P11511 1-503): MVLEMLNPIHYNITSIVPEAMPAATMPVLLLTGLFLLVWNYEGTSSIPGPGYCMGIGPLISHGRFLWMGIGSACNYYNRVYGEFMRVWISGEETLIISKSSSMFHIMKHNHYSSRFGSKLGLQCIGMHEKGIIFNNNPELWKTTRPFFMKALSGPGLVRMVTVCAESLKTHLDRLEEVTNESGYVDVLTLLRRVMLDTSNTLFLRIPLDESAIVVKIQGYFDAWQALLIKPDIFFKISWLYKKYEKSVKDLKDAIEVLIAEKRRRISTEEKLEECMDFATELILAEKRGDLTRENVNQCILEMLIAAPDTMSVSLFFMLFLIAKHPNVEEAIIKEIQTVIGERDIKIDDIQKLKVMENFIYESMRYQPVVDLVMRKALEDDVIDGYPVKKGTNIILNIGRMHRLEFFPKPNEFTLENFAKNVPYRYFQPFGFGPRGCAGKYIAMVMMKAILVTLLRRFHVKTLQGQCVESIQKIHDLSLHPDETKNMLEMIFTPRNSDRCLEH
Experimental: The compounds of the formula (I′) have at least one asymmetric carbon atom, which is labelled “*”. A compound of the formula (I′) is to be understood as a compound having a specific configuration around the designated asymmetric carbon atom. If a synthesis method is used which leads to racemic compounds, the racemate resolution is carried out in accordance with conventional methods, such as via a chiral HPLC column. […] The aforementioned aromatase inhibitory activity can, as the skilled worker is well aware and as described below, be comfortably determined via the commercial Cyp19 enzyme inhibition kit (vide infra). In the abovementioned inhibition kit, compounds of the formula (I′) have an activity which is at least 10 times lower, preferably 20 times lower than the compounds of the formula (I′) with the opposite configuration around the asymmetric carbon atom labelled “*”.
The enzyme aromatese (CYP19) mediates the rate-limiting step of estrogen biosynthesis in human and rodent species. As estrogens control the sexual characteristics and reproduction as well as various structural and functional tissue features, compounds intended for the herein disclosed therapeutic use should at therapeutic dose levels show no or only minor interference with aromatase.
The concentration-dependent interference of the compounds with aromatase can be measured in vitro using a commercial Cyp19 enzyme inhibition kit and the manufacturer's instructions.
The Cyp19/methoxy-4-trifluoromethyl-coumarin (MFC) high throughput inhibition kit (Becton Dickinson Biosciences, San Jose, Calif., USA), for example, is designed to screen for potential inhibitors of Cyp19 catalytic activity in a 96-well format. The kit includes recombinant human Cyp19 enzyme in the form of supersomes, a fluorescent P450 substrate, an NADPH regenerating system, a reaction buffer and a stop reagent. MFC, the fluorogenic substrate is rapidly converted by Cyp19 supersomes to the highly fluorescent product 7-hydroxy-4-trifluoromethyl coumarin (7-HFC). The execution of the assay in the presence of various concentrations of inhibitor compounds ranging from 0.2 nanomolar to […] occurs according to the manufacturer's instructions. The concentration-dependent inhibition of aromatase activity can be quantified using the equation described above for the in vitro testing of aldosterone synthase inhibition in NCI-H295R cells to generate IC50 values (inhibitory concentration in mol/l yielding 50% of the maximal inhibition).

[2] = target: T2, aldosterone synthase (CYP11B2) (Rattus norvegicus, UniProt P30099); experiment: Suppression of plasma aldosterone levels in ACTH-stimulated rats; format: in vivo, Wistar rats; conditions: 4 mg/kg p.o., 2 h after dosing vs 1 h before dosing
T2 construct: from tissue; host or cells: live Wistar rat (adrenal gland, zona glomerulosa)
T2 sequence (P30099 35-510): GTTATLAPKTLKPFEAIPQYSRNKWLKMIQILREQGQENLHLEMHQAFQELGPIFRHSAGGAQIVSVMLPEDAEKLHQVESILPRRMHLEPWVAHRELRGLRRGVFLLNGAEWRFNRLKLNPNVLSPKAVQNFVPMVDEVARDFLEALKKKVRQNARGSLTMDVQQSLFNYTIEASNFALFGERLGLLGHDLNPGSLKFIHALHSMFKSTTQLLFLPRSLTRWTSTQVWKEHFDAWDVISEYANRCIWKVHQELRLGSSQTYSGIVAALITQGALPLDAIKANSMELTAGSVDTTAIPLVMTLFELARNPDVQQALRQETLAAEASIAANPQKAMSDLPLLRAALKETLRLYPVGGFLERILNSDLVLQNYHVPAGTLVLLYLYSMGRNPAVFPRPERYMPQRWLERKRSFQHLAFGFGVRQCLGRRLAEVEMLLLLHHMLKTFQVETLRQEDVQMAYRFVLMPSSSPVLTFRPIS
Experimental: The target efficacy of the compounds disclosed in the present invention to dose-dependently suppress aldosterone levels in vivo may be assessed with the following protocol:
(§1) Adult male Wistar rats weighing between 250 and 350 grams are kept under the usual 12-hour light and 12-hour dark conditions at a temperature of 23° C.±2° C. On the first day of the experiment, the animals receive a subcutaneous injection of a depot ACTH product in a dose of 1.0 mg/kg weight (SYNACTHEN-Depot, Novartis, Basel, CH) 16 hours prior to the administration of a test compound. […] An alternative method to stimulate aldosterone secretion consists in subjecting rats to a low salt diet for 48 hours and applying the diuretic furosemide at 10 mg/kg by subcutaneous or intraperitoneal administration 16 hours, respectively 2 hours prior to the start of the experiment. […] The aldosterone concentrations of the plasma samples can be determined with a radioimmunoassay as described above for the in vitro test systems. […]
(§2) The selective suppression of plasma steroid levels as for instance aldosterone in comparison to corticosterone may serve as a measure for in vivo bioavailability and pharmacodynamic enzyme inhibitory activity of the herein described compounds. The evaluation of the data may occur relative to the application of vehicle or quantitatively by determination of the area under the curve (AUC).

[3] = target: T3, 11beta hydroxylase (CYP11B1) (Rattus norvegicus, UniProt P15393); experiment: Suppression of plasma corticosterone levels in ACTH-stimulated rats; format: in vivo, Wistar rats; conditions: 4 mg/kg p.o., 2 h after dosing vs 1 h before dosing
T3 construct: from tissue; host or cells: live Wistar rat (adrenal gland)
T3 sequence (P15393 25-499): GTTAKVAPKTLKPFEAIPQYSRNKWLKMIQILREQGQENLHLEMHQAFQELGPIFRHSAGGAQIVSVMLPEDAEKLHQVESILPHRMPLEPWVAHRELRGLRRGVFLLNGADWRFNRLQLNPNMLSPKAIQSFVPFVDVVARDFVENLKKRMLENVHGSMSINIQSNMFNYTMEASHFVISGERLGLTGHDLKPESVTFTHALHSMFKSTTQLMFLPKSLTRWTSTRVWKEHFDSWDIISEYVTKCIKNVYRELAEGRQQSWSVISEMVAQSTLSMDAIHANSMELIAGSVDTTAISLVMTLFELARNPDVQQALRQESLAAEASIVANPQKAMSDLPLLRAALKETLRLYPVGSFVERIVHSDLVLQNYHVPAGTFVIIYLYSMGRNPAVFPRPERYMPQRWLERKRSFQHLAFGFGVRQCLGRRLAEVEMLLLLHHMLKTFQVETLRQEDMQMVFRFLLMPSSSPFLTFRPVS
Experimental: as §1, with “experiment. On the second day of the experiment, the animals are divided into test groups of 5 animals and subjected to a first bleed 1 hour prior to the administration of test compound.” for “experiment.”
as §2, with “(AUC). […]” for “(AUC).”

[4] = enantiomers with differing aromatase inhibition, read-out: IC50 value (aromatase inhibition, enantiomers)
[5] = average of several measurements, read-out: IC50 value (aromatase inhibition)

Row | Compound | IC50 [1, 4] [nM] | IC50 [1, 5] [nM] | Aldosterone levels (% change at 2 h) [2] [%] | Corticosterone levels (% change at 2 h) [3] [%]
1 | N#Cc1ccc2c(c1)COC21CCn2cncc21 (single isomer, unassigned) [Example 23, (1S) or (1R)-5′,6′-Dihydro-3H-spiro[2-benzofuran-1,7′-pyrrolo[1,2-c]imidazole]-5-carbonitrile] | 922 | – | – | –
2 | N#Cc1ccc2c(c1)COC21CCn2cncc21 (single isomer, unassigned) [antipode of 23] | 31.8 | – | – | –
3 | N#Cc1ccc2c(c1)COC21CCCn2cncc21 (centres unmarked) [Example 1, 6′,7′-Dihydro-3H,5′H-spiro[2-benzofuran-1,8′-imidazo[1,5-a]pyridine]-5-carbonitrile] | – | 64.6 | −67.6 | −7.7
4 | N#Cc1ccc2c(c1)C1(CCCn3cncc31)OC2 (centres unmarked) [Example 4, 6′,7′-Dihydro-3H,5′H-spiro[2-benzofuran-1,8′-imidazo[1,5-a]pyridine]-6-carbonitrile] | – | 406 | −50.2 | 0.9
